Test: Chelation test with La^3+ by HPLC
Format: physicochemical
Conditions: FIGS. 1A-1B

| SMILES | chelation of La^3+ (shift in HPLC retention time after mixing) |
| --- | --- |
| CC(C)CCC(c1cccc(C(=O)O)n1)N1CCOCCOCCN(Cc2cccc(C(=O)O)n2)CCOCCOCC1 (centres unmarked) [TOPA-[C7]-isopentyl, 6-((16-(1-(6-carboxypyridin-2-yl)-4-methylpentyl)-1,4,10,13-tetraoxa-7,16-diazacyclooctadecan-7-yl)methyl)picolinic acid] | rapid chelation |
| O=C(O)c1cccc(CN2CCOCCOCCN(C(c3ccccc3)c3cccc(C(=O)O)n3)CCOCCOCC2)n1 (centres unmarked) [TOPA-[C7]-phenyl, 6-((16-((6-carboxypyridin-2-yl)(phenyl)methyl)-1,4,10,13-tetraoxa-7,16-diazacyclooctadecan-7-yl)methyl)picolinic acid] | rapid chelation |

Reference: US20220143231A1, “MACROCYCLIC COMPOUNDS AND METHODS OF USE THEREOF” (Janssen Biotech, Inc., priority 2020, published 2022)
